Assay results taken from BindingDB's records for doi:10.1016/s0960-894x(03)00105-7 (University of California Irvine, 2003).

Biological target: Serine/threonine-protein phosphatase 2A catalytic subunit alpha
Test: Inhibition of protein phosphatase 2A (PP2A) was determined by standard phosphorylase a inhibition assay

Row | SMILES | IC50 [µM]
1 | CO[C@@H]([C@H](O)CC(=O)[C@@H](C)[C@@H](O)CC[C@@H](C)[C@@H]1O[C@]2(CC[C@@H](C)[C@H](CC[C@H](C)C(C)=O)O2)CC[C@@H]1C)[C@H](OC(=O)CCCP(=O)(O)O)C(C)C [4-Phosphono-butyric acid (1R,2S,3R,6S,7S,10R)-10-[(2S,3S,6R,8S,9R)-3,9-dimethyl-8-((S)-3-methyl-4-oxo-pentyl)-1,7-dioxa-spiro[5.5]undec-2-yl]-3,7-dihydroxy-1-isopropyl-2-methoxy-6-methyl-5-oxo-undecyl ester] | 300
2 | CO[C@@H]([C@H](O)CC(=O)[C@@H](C)[C@@H](O)CC[C@@H](C)[C@@H]1O[C@]2(CC[C@@H](C)[C@H](CC[C@H](C)C(C)=O)O2)CC[C@@H]1C)[C@H](OC(=O)C[C@@H](O)/C=C(\C)C(=O)O)C(C)C [(E)-(R)-4-Hydroxy-2-methyl-hex-2-enedioic acid 6-{(1R,2S,3R,6S,7S,10R)-10-[(2S,3S,6R,8S,9R)-3,9-dimethyl-8-((S)-3-methyl-4-oxo-pentyl)-1,7-dioxa-spiro[5.5]undec-2-yl]-3,7-dihydroxy-1-isopropyl-2-methoxy-6-methyl-5-oxo-undecyl} ester] | 4
3 | CO[C@@H]([C@H](O)CC(=O)[C@@H](C)[C@@H](O)CC[C@@H](C)[C@@H]1O[C@]2(CC[C@@H](C)[C@H](CC[C@H](C)C(C)=O)O2)CC[C@@H]1C)[C@H](OC(=O)C[C@@](C)(O)C(=O)O)C(C)C [(R)-2-Hydroxy-2-methyl-succinic acid 4-{(1R,2S,3R,6S,7S,10R)-10-[(2S,3S,6R,8S,9R)-3,9-dimethyl-8-((S)-3-methyl-4-oxo-pentyl)-1,7-dioxa-spiro[5.5]undec-2-yl]-3,7-dihydroxy-1-isopropyl-2-methoxy-6-methyl-5-oxo-undecyl} ester] | 100
4 | CO[C@@H]([C@H](O)CC(=O)[C@@H](C)[C@@H](O)CC[C@@H](C)[C@@H]1O[C@]2(CC[C@@H](C)[C@H](CC[C@H](C)C(C)=O)O2)CC[C@@H]1C)[C@H](OC(=O)C[C@](C)(O)C(=O)O)C(C)C [(S)-2-Hydroxy-2-methyl-succinic acid 4-{(1R,2S,3R,6S,7S,10R)-10-[(2S,3S,6R,8S,9R)-3,9-dimethyl-8-((S)-3-methyl-4-oxo-pentyl)-1,7-dioxa-spiro[5.5]undec-2-yl]-3,7-dihydroxy-1-isopropyl-2-methoxy-6-methyl-5-oxo-undecyl} ester] | 29
